Test results as given in ChEMBL document CHEMBL4118137, “Design, synthesis and antineoplastic activity of novel hybrids of podophyllotoxin and indirubin against human leukaemia cancer cells as multifunctional anti-MDR agents” (Bioorg Med Chem Lett, 2018).
Calls of active or inactive are those of the source. No cut-off for these calls is given here.

Tests used:
K562/VCR [1] = test: Antiproliferative activity against human K562/VCR cells after 72 hrs by CCK8 assay; type: functional, cell-based
K562 = test: Antiproliferative activity against human K562 cells after 72 hrs by CCK8 assay; type: functional, cell-based; details: K562, 72 h
[2] = Resistance factor, ratio of IC50 for human K562/VCR cells to IC50 for human K562 cells; type: functional
Homo sapiens = species on record: Homo sapiens; test: Inhibition of alpha-tubulin polymerization in human K562/VCR cells assessed as disruption of microtubule organization at 0.05 uM after 24 hrs by DAPI staining-based immunofluorescence assay; type: cell-based
K562/VCR [3] = test: Induction of reactive oxygen species formation in human K562/VCR cells at 0.05 uM after 24 hrs by DCFH-DA staining-based flow cytometric method (reference value: 0.41%); type: functional
K562/VCR [4] = test: Induction of autophagy in human K562/VCR cells assessed as upregulation of LC3-2 expression at 0.05 uM after 48 hrs by Western blot method relative to beta-actin; type: functional
K562/VCR [5] = test: Cell cycle arrest in human K562/VCR cells assessed as accumulation at S phase at 0.05 uM after 48 hrs by propidium iodide staining-based flow cytometric method (reference value: 46.02%); type: functional
K562/VCR [6] = test: Induction of apoptosis in human K562/VCR cells assessed as early apoptotic cells at 0.05 uM after 48 hrs by annexin-V-FITC/propidium iodide staining-based flow cytometric method (reference value: 6.90%); type: functional
K562/VCR [7] = test: Induction of apoptosis in human K562/VCR cells assessed as late apoptotic cells at 0.05 uM after 48 hrs by annexin-V-FITC/propidium iodide staining-based flow cytometric method (reference value: 1.90%); type: functional
K562/VCR [8] = test: Cell cycle arrest in human K562/VCR cells assessed as accumulation at G2 phase at 0.05 uM after 48 hrs by propidium iodide staining-based flow cytometric method (reference value: 7.78%); type: functional
K562/VCR [9] = test: Induction of apoptosis in human K562/VCR cells assessed as upregulation of cleaved PARP expression at 0.05 uM after 48 hrs by Western blot method relative to beta-actin; type: functional
K562/VCR [10] = test: Downregulation of MRP-1 expression in human K562/VCR cells at 0.05 uM after 48 hrs by Western blot method relative to beta-actin; type: functional
K562/VCR [11] = test: Cell cycle arrest in human K562/VCR cells assessed as accumulation at G1 phase at 0.05 uM after 48 hrs by propidium iodide staining-based flow cytometric method (reference value: 46.20%); type: functional
K562/VCR [12] = test: Induction of apoptosis in human K562/VCR cells assessed as necrotic cells at 0.05 uM after 48 hrs by annexin-V-FITC/propidium iodide staining-based flow cytometric method (reference value: 0.15%); type: functional
K562/VCR [13] = test: Downregulation of P-gp expression in human K562/VCR cells at 0.05 uM after 48 hrs by Western blot method relative to beta-actin; type: functional
[14] = molecular target: c-Jun N-terminal kinase, JNK (Homo sapiens) (UniProt P45983+P53779+P45984); test: Induction of JNK phosphorylation in human K562/VCR cells at 0.05 uM after 48 hrs by Western blot method relative to beta-actin; type: cell-based
K562/VCR [15] = test: Induction of autophagy in human K562/VCR cells assessed as upregulation of beclin-1 expression at 0.05 uM after 48 hrs by Western blot method relative to beta-actin; type: functional
K562/VCR [16] = test: Induction of apoptosis in human K562/VCR cells assessed as downregulation of CDK2 expression at 0.05 uM after 48 hrs by Western blot method relative to beta-actin; type: functional
K562/VCR [17] = test: Induction of apoptosis in human K562/VCR cells assessed as viable cells at 0.05 uM after 48 hrs by annexin-V-FITC/propidium iodide staining-based flow cytometric method (reference value: 91.05%); type: functional; details: read-out: Activity
K562/VCR [18] = test: Induction of apoptosis in human K562/VCR cells assessed as downregulation of CDK1 expression at 0.05 uM after 48 hrs by Western blot method relative to beta-actin; type: functional
[19] = molecular target: RAC-alpha serine/threonine-protein kinase (Homo sapiens) (UniProt P31749); test: Inhibition of AKT phosphorylation in human K562/VCR cells at 0.05 uM after 48 hrs by Western blot method relative to beta-actin; type: cell-based
K562/VCR [20] = test: Reduction in mitochondrial membrane potential in human K562/VCR cells at 0.1 uM after 48 hrs by JC1 probe-based flow cytometric method (reference value: 2.65%); type: functional; design: scale not given: the % may be the effect or the level left
K562/Adr = test: Antiproliferative activity against human K562/ADR cells after 72 hrs by CCK8 assay; type: functional, cell-based

Chain of RAC-alpha serine/threonine-protein kinase (Homo sapiens) (P31749 whole entry): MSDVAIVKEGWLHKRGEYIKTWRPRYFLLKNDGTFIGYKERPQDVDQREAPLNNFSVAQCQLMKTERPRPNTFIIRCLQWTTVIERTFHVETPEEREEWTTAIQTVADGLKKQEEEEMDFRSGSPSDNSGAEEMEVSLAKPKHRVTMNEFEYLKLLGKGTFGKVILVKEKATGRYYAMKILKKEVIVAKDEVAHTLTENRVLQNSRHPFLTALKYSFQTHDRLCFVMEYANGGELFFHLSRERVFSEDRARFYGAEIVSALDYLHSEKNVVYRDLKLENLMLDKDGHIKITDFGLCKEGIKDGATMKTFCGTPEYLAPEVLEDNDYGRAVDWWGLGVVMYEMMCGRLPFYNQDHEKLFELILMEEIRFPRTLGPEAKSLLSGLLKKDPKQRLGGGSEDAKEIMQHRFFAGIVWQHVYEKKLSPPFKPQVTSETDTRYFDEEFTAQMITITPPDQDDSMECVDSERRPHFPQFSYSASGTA

O=C1Nc2ccccc2/C1=C1/Nc2ccccc2C1=O [INDIRUBIN]
IC50 (K562/VCR [1]): > 100000 nM | IC50 (K562): > 100000 nM

COc1cc([C@@H]2c3cc4c(cc3[C@H](OC(=O)CCN3C(=O)/C(=C5\Nc6ccccc6C5=O)c5ccccc53)[C@H]3COC(=O)[C@H]23)OCO4)cc(OC)c1OC
IC50 (K562/VCR [1]): 2140 nM | Ratio IC50 [2]: 1.64 | IC50 (K562): 1300 nM

COc1cc([C@@H]2c3cc4c(cc3[C@H](O)[C@H]3COC(=O)[C@H]23)OCO4)cc(OC)c1OC [PODOFILOX]
inhibition (Homo sapiens): Active | Activity (K562/VCR [3]): 45.54% | fold change (FC) (K562/VCR [4]): 0.65 | Activity (K562/VCR [5]): 22.9% | Activity (K562/VCR [6]): 28.1% | Activity (K562/VCR [7]): 23.21% | Activity (K562/VCR [8]): 59.28% | IC50 (K562/VCR [1]): 50 nM | fold change (FC) (K562/VCR [9]): 0.61 | fold change (FC) (K562/VCR [10]): 0.22 | Activity (K562/VCR [11]): 17.81% | Activity (K562/VCR [12]): 0.08% | Ratio IC50 [2]: 2 | fold change (FC) (K562/VCR [13]): 0.27 | IC50 (K562): 25 nM | fold change (FC) [14]: 1.04 | fold change (FC) (K562/VCR [15]): 0.78 | fold change (FC) (K562/VCR [16]): 0.37 | viability at 0.05 µM (K562/VCR [17]): 48.6% | fold change (FC) (K562/VCR [18]): 0.27 | fold change (FC) [19]: 0.33 | Activity (K562/VCR [20]): 52.5%

CC[C@]1(O)C[C@H]2CN(CCc3c([nH]c4ccccc34)[C@@](C(=O)OC)(c3cc4c(cc3OC)N(C=O)[C@H]3[C@@](O)(C(=O)OC)[C@H](OC(C)=O)[C@]5(CC)C=CCN6CC[C@]43[C@@H]65)C2)C1 [VINCRISTINE]
IC50 (K562/VCR [1]): 4740 nM | Ratio IC50 [2]: 26.61 | IC50 (K562): 178 nM

COc1cc([C@@H]2c3cc4c(cc3[C@H](OC(=O)CN3C(=O)C(=O)c5c(Br)cccc53)[C@H]3COC(=O)[C@H]23)OCO4)cc(OC)c1OC
IC50 (K562/Adr): 67 nM
